This data set can be described thus: recombinant barcode read abundance after kanamycin selection (control-corrected) (log10(CPM+1)); higher = more efficient recombination; sequences stand for … in AGTGCAGAGAAAATCGGCCAGTTTTCTCTGCCTGCAGTCCGCATGCCGT…AGATTTATGCAGCGGACTGCCTTTCTCCCAAAGTGATAAACCGGACAGTATCATGGACCGGTTTTCCCGGTAATCCGTATTTGCAAGGTTGGTTTCACT; site = the 11-nt target. In a few lines: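 Targets were screened in pooled form in E. coli against IS621 bridge RNA target-binding loops. Recombination efficiency is based on barcode counts at recombinant junctions in counts per million, averaged and corrected for the control. Numbers are shown as log10(CPM+1), with duplicate plates on chloramphenicol/ampicillin LB agar (control) or chloramphenicol/ampicillin/kanamycin with 0.1 mM IPTG.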
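Also: IS621 recombinase and bridge RNA in Escherichia coli cells.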

On to “GGCACGGCTTGGGTTCTAACCTGTTGCCT (site GGCACTGCTAG)”, for which the “recombinant barcode read abundance (log10)” value came out at 0.11.

Take “GGCAGGTCTTGGGTTCTAACCTGTTGCTT (site GGCAGATCTAA)”: the “recombinant barcode read abundance (log10)” value came out at 0.163.

For “GGCAGGTCTTGGGTTCTAACCTGTTGCTT (site GGCAGCTCTAA)”, the “recombinant barcode read abundance (log10)” value came to 0.0728.

Regarding “GGCAGGTCTTGGGTTCTAACCTGTTGCTT (site GGCAGGTCTAA)”, the “recombinant barcode read abundance (log10)” value was determined as 0.795.

As to “GGCAGGTCTTGGGTTCTAACCTGTTGCTT (site GGCAGTTCTAA)”, the “recombinant barcode read abundance (log10)” value was 0.044.

“GGCAGTTCTTGGGTTCTAACCTGTTGCTT (site GGCAGATCTAA)”: the “recombinant barcode read abundance (log10)” value was determined as 0.0437.

For “GGCAGTTCTTGGGTTCTAACCTGTTGCTT (site GGCAGCTCTAA)”, the “recombinant barcode read abundance (log10)” value turned out to be 0.0661.

As for “GGCAGTTCTTGGGTTCTAACCTGTTGCTT (site GGCAGGTCTAA)”, the “recombinant barcode read abundance (log10)” value is 0.0765.

“GGCAGTTCTTGGGTTCTAACCTGTTGCTT (site GGCAGTTCTAA)”: the “recombinant barcode read abundance (log10)” value is 0.0537.

Consider “GGCCCCTCTTGGGTTCTAACCTGTTGCCG (site CGCGCCTCTCG)”, for which the “recombinant barcode read abundance (log10)” value is 0.368.

“GGCCCCTCTTGGGTTCTAACCTGTTGCCG (site GGCCCCTCTCG)”: the “recombinant barcode read abundance (log10)” value was 1.8.

On to “GGCCGAACTTGGGTTCTAACCTGTTGCCT (site AGCCGAACTAG)”, for which the “recombinant barcode read abundance (log10)” value was determined as 0.112.

For “GGCCGAACTTGGGTTCTAACCTGTTGCCT (site CGCCGAACTAG)”, the “recombinant barcode read abundance (log10)” value was determined as 0.0639.

On to “GGCCGAACTTGGGTTCTAACCTGTTGCCT (site GGCCGAACTAG)”, for which the “recombinant barcode read abundance (log10)” value is 0.211.

“GGCCGAACTTGGGTTCTAACCTGTTGCCT (site TGCCGAACTAG)”: the “recombinant barcode read abundance (log10)” value was found to be 0.144.

As to “GGCCGGGCTTGGGTTCTAACCTGTTGCGG (site GCCCGGGCTCC)”, the “recombinant barcode read abundance (log10)” value turned out to be 0.286.

For “GGCCGGGCTTGGGTTCTAACCTGTTGCGG (site GGCCGGGCTCC)”, the “recombinant barcode read abundance (log10)” value was found to be 0.906.

Regarding “GGCCTCCCTTGGGTTCTAACCTGTTGCAT (site CGCCTCCCTAT)”, the “recombinant barcode read abundance (log10)” value was 0.0328.

Regarding “GGCCTCCCTTGGGTTCTAACCTGTTGCAT (site GGCCTCCCTAT)”, the “recombinant barcode read abundance (log10)” value turned out to be 0.743.

Turning to “GGCGACCCTTGGGTTCTAACCTGTTGCCT (site GGCGACCCTAG)”, the “recombinant barcode read abundance (log10)” value was 0.99.

Turning to “GGCGACCCTTGGGTTCTAACCTGTTGCCT (site GGCGTCACTAG)”, the “recombinant barcode read abundance (log10)” value came out at 0.143.

On to “GGCGAGTCTTGGGTTCTAACCTGTTGCTA (site GACGAGTCTTA)”, for which the “recombinant barcode read abundance (log10)” value turned out to be 1.4.

In the case of “GGCGAGTCTTGGGTTCTAACCTGTTGCTA (site GGCGAGTCTTA)”, the “recombinant barcode read abundance (log10)” value turned out to be 1.64.

“GGCGCATCTTGGGTTCTAACCTGTTGCCT (site GGCGCATCTAG)”: the “recombinant barcode read abundance (log10)” value is 0.417.

Consider “GGCGCATCTTGGGTTCTAACCTGTTGCCT (site GGCGCGTCTAG)”, for which the “recombinant barcode read abundance (log10)” value was determined as 0.207.

Consider “GGCGGAGCTTGGGTTCTAACCTGTTGCCG (site CTGCACCCTTA)”, for which the “recombinant barcode read abundance (log10)” value was 0.0863.

In the case of “GGCGGAGCTTGGGTTCTAACCTGTTGCCG (site GGCGGAGCTCG)”, the “recombinant barcode read abundance (log10)” value worked out at 1.27.

On to “GGCGGCTCTTGGGTTCTAACCTGTTGCCT (site ACATAAGCTTA)”, for which the “recombinant barcode read abundance (log10)” value amounted to 0.103.

With “GGCGGCTCTTGGGTTCTAACCTGTTGCCT (site GGCGGCTCTAG)”, the “recombinant barcode read abundance (log10)” value amounted to 1.42.

On to “GGCTATGCTTGGGTTCTAACCTGTTGCCT (site GACTATGCTAG)”, for which the “recombinant barcode read abundance (log10)” value was found to be 0.143.

On to “GGCTATGCTTGGGTTCTAACCTGTTGCCT (site GCCTATGCTAG)”, for which the “recombinant barcode read abundance (log10)” value was 0.106.

Take “GGCTATGCTTGGGTTCTAACCTGTTGCCT (site GGCTATGCTAG)”: the “recombinant barcode read abundance (log10)” value worked out at 0.175.

Take “GGCTATGCTTGGGTTCTAACCTGTTGCCT (site GTCTATGCTAG)”: the “recombinant barcode read abundance (log10)” value was 0.0729.

As to “GGCTGAGCTTGGGTTCTAACCTGTTGCCT (site GACTGAGCTAC)”, the “recombinant barcode read abundance (log10)” value was determined as 0.0838.

Turning to “GGCTGAGCTTGGGTTCTAACCTGTTGCCT (site GGCTGAGCTAG)”, the “recombinant barcode read abundance (log10)” value came to 0.856.

In the case of “GGCTGATCTTGGGTTCTAACCTGTTGCCT (site AGCTGATCTAG)”, the “recombinant barcode read abundance (log10)” value amounted to 0.126.

Regarding “GGCTGATCTTGGGTTCTAACCTGTTGCCT (site CGCTGATCTAG)”, the “recombinant barcode read abundance (log10)” value was 0.309.

As for “GGCTGATCTTGGGTTCTAACCTGTTGCCT (site GGCTGATCTAG)”, the “recombinant barcode read abundance (log10)” value was 0.382.

For “GGCTGATCTTGGGTTCTAACCTGTTGCCT (site TGCTGATCTAG)”, the “recombinant barcode read abundance (log10)” value is 0.216.

“GGCTGCACTTGGGTTCTAACCTGTTGCCT (site GGCGGTACTAG)”: the “recombinant barcode read abundance (log10)” value was found to be 0.504.

Turning to “GGCTGCACTTGGGTTCTAACCTGTTGCCT (site GGCTGCACTAG)”, the “recombinant barcode read abundance (log10)” value is 1.17.

Take “GGCTGGGCTTGGGTTCTAACCTGTTGCCG (site GGCTGGGCTCG)”: the “recombinant barcode read abundance (log10)” value was 0.125.

Turning to “GGCTGGGCTTGGGTTCTAACCTGTTGCCG (site GGTTGGGCTCT)”, the “recombinant barcode read abundance (log10)” value is 0.194.

In the case of “GGCTGTTCTTGGGTTCTAACCTGTTGCCT (site GACTGTTCTAG)”, the “recombinant barcode read abundance (log10)” value turned out to be 0.195.

Consider “GGCTGTTCTTGGGTTCTAACCTGTTGCCT (site GCCTGTTCTAG)”, for which the “recombinant barcode read abundance (log10)” value was determined as 0.425.

Consider “GGCTGTTCTTGGGTTCTAACCTGTTGCCT (site GGCTGTTCTAG)”, for which the “recombinant barcode read abundance (log10)” value was found to be 0.334.

In the case of “GGCTGTTCTTGGGTTCTAACCTGTTGCCT (site GTCTGTTCTAG)”, the “recombinant barcode read abundance (log10)” value was determined as 0.242.

For “GGCTTCCCTTGGGTTCTAACCTGTTGCCT (site GGCATCCCTAG)”, the “recombinant barcode read abundance (log10)” value came out at 0.299.

On to “GGCTTCCCTTGGGTTCTAACCTGTTGCCT (site GGCCTCCCTAG)”, for which the “recombinant barcode read abundance (log10)” value is 0.855.

As for “GGCTTCCCTTGGGTTCTAACCTGTTGCCT (site GGCGTCCCTAG)”, the “recombinant barcode read abundance (log10)” value turned out to be 0.141.

Turning to “GGCTTCCCTTGGGTTCTAACCTGTTGCCT (site GGCTTCCCTAG)”, the “recombinant barcode read abundance (log10)” value is 0.415.

For “GGCTTGACTTGGGTTCTAACCTGTTGCCT (site CCAGGTGCTCC)”, the “recombinant barcode read abundance (log10)” value was 0.304.

As for “GGCTTGACTTGGGTTCTAACCTGTTGCCT (site GGCTTGACTAG)”, the “recombinant barcode read abundance (log10)” value was 0.694.

“GGGAACACTTGGGTTCTAACCTGTTGCCA (site GGGAACACTTG)”: the “recombinant barcode read abundance (log10)” value is 1.74.

In the case of “GGGAACACTTGGGTTCTAACCTGTTGCCA (site GGGCACACTTG)”, the “recombinant barcode read abundance (log10)” value is 0.11.

With “GGGAACCCTTGGGTTCTAACCTGTTGCAT (site AGGAACTCTAT)”, the “recombinant barcode read abundance (log10)” value came out at 0.115.

For “GGGAACCCTTGGGTTCTAACCTGTTGCAT (site GGGAACCCTAT)”, the “recombinant barcode read abundance (log10)” value amounted to 1.96.

In the case of “GGGACGACTTGGGTTCTAACCTGTTGCTT (site GGGACGACTAA)”, the “recombinant barcode read abundance (log10)” value came out at 1.04.

As to “GGGACGACTTGGGTTCTAACCTGTTGCTT (site GGGACGACTTA)”, the “recombinant barcode read abundance (log10)” value was determined as 0.0442.

Regarding “GGGACTACTTGGGTTCTAACCTGTTGCCG (site ACTCGCTCTGT)”, the “recombinant barcode read abundance (log10)” value stood at 0.0845.

Turning to “GGGACTACTTGGGTTCTAACCTGTTGCCG (site GGGACTACTCG)”, the “recombinant barcode read abundance (log10)” value came out at 0.876.

On to “GGGATCCCTTGGGTTCTAACCTGTTGCGG (site CTCGAATCTAA)”, for which the “recombinant barcode read abundance (log10)” value was determined as 0.024.

Consider “GGGATCCCTTGGGTTCTAACCTGTTGCGG (site GGGATCCCTCC)”, for which the “recombinant barcode read abundance (log10)” value worked out at 2.

In the case of “GGGCAGTCTTGGGTTCTAACCTGTTGCCG (site GGGCAGTCTCG)”, the “recombinant barcode read abundance (log10)” value is 1.78.

For the sequence “GGGCAGTCTTGGGTTCTAACCTGTTGCCG (site GGGGCGTCTCG)”, the “recombinant barcode read abundance (log10)” value was found to be 0.14.

As for “GGGCCCGCTTGGGTTCTAACCTGTTGCCT (site GGGCCCGCTAG)”, the “recombinant barcode read abundance (log10)” value is 1.84.

Consider “GGGCCCGCTTGGGTTCTAACCTGTTGCCT (site GGGCCTGCTAG)”, for which the “recombinant barcode read abundance (log10)” value turned out to be 0.154.

Regarding “GGGCCTGCTTGGGTTCTAACCTGTTGCCT (site GGGCCCGCTAG)”, the “recombinant barcode read abundance (log10)” value was found to be 0.645.

On to “GGGCCTGCTTGGGTTCTAACCTGTTGCCT (site GGGCCTGCTAG)”, for which the “recombinant barcode read abundance (log10)” value stood at 2.1.

Turning to “GGGGAAGCTTGGGTTCTAACCTGTTGCCT (site GAGGAAGCTAG)”, the “recombinant barcode read abundance (log10)” value was 0.276.

In the case of “GGGGAAGCTTGGGTTCTAACCTGTTGCCT (site GCGGAAGCTAG)”, the “recombinant barcode read abundance (log10)” value is 0.343.

With “GGGGAAGCTTGGGTTCTAACCTGTTGCCT (site GGGGAAGCTAG)”, the “recombinant barcode read abundance (log10)” value was 1.73.

As to “GGGGAAGCTTGGGTTCTAACCTGTTGCCT (site GTGGAAGCTAG)”, the “recombinant barcode read abundance (log10)” value worked out at 0.291.

“GGGGATCCTTGGGTTCTAACCTGTTGCGA (site GGGGAGCCTCC)”: the “recombinant barcode read abundance (log10)” value was found to be 0.00823.

On to “GGGGATCCTTGGGTTCTAACCTGTTGCGA (site GGGGATCCTTC)”, for which the “recombinant barcode read abundance (log10)” value amounted to 2.06.

For the sequence “GGGGATTCTTGGGTTCTAACCTGTTGCCT (site GGGGATTCTAG)”, the “recombinant barcode read abundance (log10)” value amounted to 2.05.

Take “GGGGATTCTTGGGTTCTAACCTGTTGCCT (site GTGGATGCTAG)”: the “recombinant barcode read abundance (log10)” value amounted to 0.0823.
